From US4448788A, “11-Deoxoglycyrrhetinic acid hydrogen maleate, process for its production, and its use as a medicine” (priority 1981, dated 1984)
Counter-ions that a name gives are not always drawn. Like-named read-outs stand apart in the source and are kept apart here.

How the values were obtained:
[1] = test system: aldosterone (DCA)-like activity; details: cited from earlier work
[2] = test system: Acetic acid-induced ulcer; assay: Acetic acid-induced ulcer; format: in vivo, male SD-strain rats; details: for Percent inhibition / Ulcer index (mean ± standard deviation): once a day for 10 days; for significance of inhibition: rat, in vivo
Experimental: In the following test examples, male SD-strain rats (body weight 200 to 250 g) were used as experimental animals, and a sodium salt of the compound of formula (I) dissolved in distilled water was used as the compound of this invention. Acetic acid-induced ulcer: Rats, 5 or 10 per group, were used. After they were anesthetized with pentobarbital sodium, the abdomen was incised, and 0.05 ml of 10% acetic acid was injected into the mucous membrane from the serous layer at the boundary portion in the anterior wall between the body of the stomach and the pylorus part. The abdomen was then sutured. Each of the test drugs shown in Table 2 was intraperitoneally or orally administered once a day for 10 consecutive days beginning with the second day after the above operation. On the 15th day after the operation, the stomach was excised and 12 ml of 1% formalin was injected into it. Then, the stomach was dipped in 1% formalin for 10 minutes, and cut open along the greater curvature. The area of an ulcer generated was measured, and the ulcer index was calculated on the basis of the following standard. |0 0 |1-8 1 | 9-24 2 |25-63 3 | 64-120 4 |121-168 5 |>168 6 The tissue respiration activator used was a calf's blood extract preparation administered at a rate of 0.5 ml per 100 g of body weight (this applies to all tissue respiration activators appearing hereinafter).

[3] = test system: Stress ulcer; assay: Stress ulcer (water immersion); format: in vivo, male SD-strain rats
Experimental: (§1) In the following test examples, male SD-strain rats (body weight 200 to 250 g) were used as experimental animals, and a sodium salt of the compound of formula (I) dissolved in distilled water was used as the compound of this invention.
(§2) The tissue respiration activator used was a calf's blood extract preparation administered at a rate of 0.5 ml per 100 g of body weight (this applies to all tissue respiration activators appearing hereinafter).
Rats, 5 per group, were used. They were put in wire gauze stress cages (made by Natsume Seisakusho) in an upstanding position. The cages were put in a water bath kept constantly at 23° C., and the rats were immersed to a level of the sternal projection. Each of the drugs shown in Table 3 was administered to the rats intraperitoneally or orally 15 minutes before water immersion. Seven hours after the administration, the rats were knocked out to death. The stomach was excised, and the length of a stress ulcer (erosion) was measured.

[4] = test system: Indomethacin-induced ulcer; assay: Indomethacin-induced ulcer; format: in vivo, male SD-strain rats
Experimental: as §1, §2
Indomethacin-induced ulcer:
Rats, 5 per group, were used. They were caused to fast for 24 hours while giving them only water. Then, indomethacin was subcutaneously injected to the rats in a dose of 30 mg/kg. Eight hours later, the rats were killed, and the stomach was excised and treated in the same way as in Test Example 3. The length of the erosion generated was measured. Each of the test drugs shown in Table 4 was administered to the rats intraperitoneally or orally 10 minutes before the administration of iodomethacin.

[5] = Toxicity (LD50, method of Reed and Muench); details: rat, in vivo, rats observed for 7 days
Experimental: The LD50 value was calculated by the method of Reed and Muench.

[6] = test system: Shay's ulcer (ulcer induced by ligation of the pylorus); assay: Pylorus ligating method (Shay's ulcer); format: in vivo, male SD-strain rats; design: Ulcer index (mean ± standard deviation): scale not given here; details: for minimal effective dose: Rattus norvegicus, read-out: positively effective dose
Experimental: as §1
Pylorus ligating method (Shay's ulcer):
Rats, 10 per group, were used, and allowed to fast for 48 hours in separate cages while giving them only water. Pentobarbital sodium was injected intraperitoneally to the rats in a dose of 5 mg per rat. Under anesthesia, the abdomen of each rat was incised, and the portion leading from the pylorus to the duodenum was ligated. Then, the abdomen was sutered. The rats were then left for 19 hours without giving them food and water. Then, under ether anesthesia, the rats were killed by removing the spinal cord. The stomach was excised, and the amount of the gastric juice was measured. The stomach was then cut open along its greater curvature, and placed on a cork plate. The area of an ulcer generated at the anterior stomach was measured by means of an Olympus stereoscope (magnification 10×), and the ulcer index was calculated on the basis of the following criteria.
The test compound of the invention was injected immediately after the ligation, or orally administered 30 minutes before the ligation. To a control group, physiological saline was given at a rate of 1 ml per 100 g of body weight.

[7] = test system: Delayed-type cellular immunity; assay: Delayed-type cellular immunity activating action (sheep red blood cells, foot pad thickness); format: in vivo, mice; details: day 8
Experimental: Mice, 10 per group, were used. Sheep red blood cells (1.0×10^7) were subcutaneously inoculated in the right foot pad of each mouse. The day of inoculation was taken as day 0, and on the same day, the sodium salt of the compound of formula (I) was administered to the mice intraperitoneally or orally. On day 7, sheep red blood cells (1.0×10^7) were subcutaneously inoculated in the left foot pad of each mouse, and on day 8, the thickness of each foot pad was measured.

[8] = oral, 300 mg/kg, P < 0.01 (cetraxate), P < 0.001 (compound of the invention)
[9] = oral, 50 mg/kg, P < 0.05 (cetraxate), P < 0.0001 (compound of the invention)
[10] = oral, 300 mg/kg, P < 0.05 (cetraxate), P < 0.001 (compound of the invention)

SMILES: CC1(C)[C@@H](O)CC[C@]2(C)[C@H]3CC=C4[C@@H]5C[C@@](C)(C(=O)O)CC[C@]5(C)CC[C@@]4(C)[C@]3(C)CC[C@@H]12 [11-deoxoglycyrrhetinic acid]
- DCA activity ([1]; Baran et al., J. Med. Chem. 1974): does not substantially show the DCA activity

SMILES: CC1(C)[C@@H](OC(=O)CCC(=O)O)CC[C@]2(C)[C@H]3C(=O)C=C4[C@@H]5C[C@@](C)(C(=O)O)CC[C@]5(C)CC[C@@]4(C)[C@]3(C)CC[C@@H]12 [Carbenoxolone sodium, glycyrrhetinic acid hydrogen succinate sodium salt, reference compound]
- Percent inhibition ([2]; oral, 300 mg/kg): 12.6%

SMILES: NC[C@H]1CC[C@H](C(=O)Oc2ccc(CCC(=O)O)cc2)CC1 [Cetraxate hydrochloride, cetraxate hydrochloride, reference compound]
- Length of the erosion (mean ± standard deviation) ([3]; intraperitoneal, 200 mg/kg): 56.08 ± 12.89 mm
- Percent inhibition ([3]; intraperitoneal, 200 mg/kg): 13.5%
- Percent inhibition ([3]; oral, 300 mg/kg): 36.6%
- Length of the erosion (mean ± standard deviation) [3, 8]: 48.6 ± 3.90 mm
- Percent inhibition ([2]; intraperitoneal, 20 mg/kg): 49.5%
- Ulcer index (mean ± standard deviation) ([2]; intraperitoneal, 20 mg/kg): 1.60 ± 0.245
- Ulcer index (mean ± standard deviation) ([2]; oral, 50 mg/kg): 1.90 ± 0.568
- Percent inhibition [2, 9]: 29.6%
- significance of inhibition [2]: significant inhibitions at P<0.001
- Length of the erosion (mean ± standard deviation) ([4]; intraperitoneal, 200 mg/kg): 38.94 ± 8.22 mm
- Percent inhibition ([4]; intraperitoneal, 200 mg/kg): 44.3%
- Length of the erosion (mean ± standard deviation) ([4]; oral, 300 mg/kg): 31.58 ± 7.59 mm
- Percent inhibition [4, 10]: 43.7%

SMILES: CC1(C)[C@@H](OC(=O)/C=C\C(=O)O)CC[C@]2(C)[C@H]3CC=C4[C@@H]5C[C@@](C)(C(=O)O)CC[C@]5(C)CC[C@@]4(C)[C@]3(C)CC[C@@H]12 [Compound of the invention, sodium salt of 11-deoxoglycyrrhetinic acid hydrogen maleate]
- Length of the erosion (mean ± standard deviation) ([3]; intraperitoneal, 20 mg/kg): 19.25 ± 0.95 mm
- Percent inhibition ([3]; intraperitoneal, 20 mg/kg): 70.3%
- Percent inhibition ([3]; oral, 100 mg/kg): 87.5%
- Length of the erosion (mean ± standard deviation) ([3]; oral, 100 mg/kg, P < 0.001): 9.6 ± 4.80 mm
- Percent inhibition ([3]; oral, 300 mg/kg): 100.0%
- Length of the erosion (mean ± standard deviation) [3, 8]: 0.0 ± 0.00 mm
- Percent inhibition ([3]; oral, 500 mg/kg): 100.0%
- Length of the erosion (mean ± standard deviation) ([3]; oral, 500 mg/kg, P < 0.001): 0.0 ± 0.00 mm
- LD50 at 168 h ([5]; ip, intraperitoneal): 67.8 mg/kg
- LD50 at 168 h ([5]; sc, subcutaneous): 98.3 mg/kg
- LD50 at 168 h ([5]; intravenous): 54.2 mg/kg
- LD50 at 168 h ([5]; oral): > 6000 mg/kg
- minimal effective dose ([6]; ip, intraperitoneal): ~10 mg/kg
- minimal effective dose ([6]; oral): ~300 mg/kg
- Percent inhibition ([6]; intraperitoneal, 5 mg/kg): 17.1%
- Ulcer index (mean ± standard deviation) ([6]; intraperitoneal, 5 mg/kg): 3.4 ± 0.84
- Percent inhibition ([6]; intraperitoneal, 10 mg/kg): 65.9%
- Ulcer index (mean ± standard deviation) ([6]; intraperitoneal, 10 mg/kg, P < 0.01): 1.4 ± 0.51
- Percent inhibition ([6]; intraperitoneal, 20 mg/kg): 70.7%
- Ulcer index (mean ± standard deviation) ([6]; intraperitoneal, 20 mg/kg, P < 0.01): 1.2 ± 0.20
- Percent inhibition ([6]; intraperitoneal, 50 mg/kg): 92.7%
- Ulcer index (mean ± standard deviation) ([6]; intraperitoneal, 50 mg/kg, P < 0.001): 0.3 ± 0.21
- Percent inhibition ([6]; intravenous, 40 mg/kg): 90.4%
- Ulcer index (mean ± standard deviation) ([6]; intravenous, 40 mg/kg, P < 0.001): 0.4 ± 0.19
- Percent inhibition ([6]; oral, 100 mg/kg): 36.0%
- Ulcer index (mean ± standard deviation) ([6]; oral, 100 mg/kg): 3.2 ± 0.97
- Percent inhibition ([6]; oral, 300 mg/kg): 80.0%
- Ulcer index (mean ± standard deviation) ([6]; oral, 300 mg/kg, P < 0.01): 1.0 ± 1.01
- Percent inhibition ([6]; oral, 500 mg/kg): 84.0%
- Ulcer index (mean ± standard deviation) ([6]; oral, 500 mg/kg, P < 0.001): 0.8 ± 0.49
- effect against ulcer induced by ligation of the pylorus ([6]; rat, in vivo): effective against ulcer induced by ligation of the pylorus
- Percent inhibition ([6]; subcutaneous, 70 mg/kg): 84.6%
- Ulcer index (mean ± standard deviation) ([6]; subcutaneous, 70 mg/kg, P < 0.001): 0.8 ± 0.90
- Ratio to the control group ([7]; 5 mm/kg (so in the source), intraperitoneal): 1.18
- Ratio to the control group ([7]; 15 mm/kg (so in the source), intraperitoneal): 1.49
- Ratio to the control group ([7]; 100 mm/kg (so in the source), oral): 1.40
- Percent inhibition ([2]; intraperitoneal, 2 mg/kg): 54.8%
- Ulcer index (mean ± standard deviation) ([2]; intraperitoneal, 2 mg/kg, P < 0.001): 1.40 ± 0.247
- Ulcer index (mean ± standard deviation) ([2]; oral, 10 mg/kg): 1.60 ± 0.699
- Percent inhibition ([2]; oral, 10 mg/kg, P < 0.001): 40.7%
- Ulcer index (mean ± standard deviation) ([2]; oral, 30 mg/kg): 1.40 ± 0.699
- Percent inhibition ([2]; oral, 30 mg/kg, P < 0.001): 48.1%
- Ulcer index (mean ± standard deviation) ([2]; oral, 50 mg/kg): 1.00 ± 0.817
- Percent inhibition [2, 9]: 63.0%
- significance of inhibition [2]: significant inhibitions at P<0.001
- rank of percent inhibition ([2]; versus cetraxate hydrochloride and tissue respiration activator): highest
- Length of the erosion (mean ± standard deviation) ([4]; intraperitoneal, 20 mg/kg): 17.69 ± 8.08 mm
- Percent inhibition ([4]; intraperitoneal, 20 mg/kg): 74.7%
- Length of the erosion (mean ± standard deviation) ([4]; oral, 100 mg/kg): 9.37 ± 3.22 mm
- Percent inhibition ([4]; oral, 100 mg/kg, P < 0.001): 83.3%
- Length of the erosion (mean ± standard deviation) ([4]; oral, 300 mg/kg): 7.22 ± 3.06 mm
- Percent inhibition [4, 10]: 87.1%
- Length of the erosion (mean ± standard deviation) ([4]; oral, 500 mg/kg): 5.63 ± 3.92 mm
- Percent inhibition ([4]; oral, 500 mg/kg, P < 0.001): 90.0%

SMILES: CC1(C)[C@@H](O)CC[C@]2(C)[C@H]3C(=O)C=C4[C@@H]5C[C@@](C)(C(=O)O)CC[C@]5(C)CC[C@@]4(C)[C@]3(C)CC[C@@H]12 [glycyrrhetinic acid]
- aldosterone (DCA)-like activity, sodium retention and potassium excretion [1]: have an aldosterone (DCA)-like activity and promote sodium retention and potassium excretion
